# Entries after “also recorded” stand apart in the source; their conditions may differ. No end group written: not given here.
# System: theta-toxin (pfoA) gene
# Assay type: cell-based, Clostridium welchii strain 13
# Conditions: not given
row,Substance,"activity of inhibiting toxin expression (theta-toxin pfoA, Northern blot, FIG. 5)"
1,ACFWAH [peptide 6n],activity of inhibiting toxin expression was shown; also recorded: inhibitory activity
2,Cys-Phe-Trp-Ala-His [cyclic CFWAH],particularly high activity; also recorded: inhibitory activity

# System: Clostridium welchii theta-toxin (pfoA)
# Assay type: cell-based, Clostridium welchii strain 13
# Conditions: not given
Substance,expression of the gene encoding theta-toxin (pfoA) (FIG. 9),agonist activity or antagonist activity (pfoA expression),IC50 (μM)
"AgrDcb-lactam: Peptide of Formula (2), CFWAH lactam obtained by ammonia conversion of AgrDcb-thiolactone (lactam (positions not given here); also: lactam from ammonia conversion of thiolactone, places not given here)",inhibited,–,–
CAWAA [SEQ ID NO. 33 (Benzyloxycarbonyl group)],–,antagonist activity,–
"CAWFT [SEQ ID NO. 37 (Benzyloxycarbonyl group), reference compound]",–,–,(No activity)
"CLAFT [SEQ ID NO. 39 (Benzyloxycarbonyl group), reference compound]",–,neither the agonist activity nor antagonist activity,(No activity)
"CLFWS [SEQ ID NO. 42 (Benzyloxycarbonyl group), reference compound]",–,–,(No activity)
CLFWT [SEQ ID NO. 22 (Benzyloxycarbonyl group)],–,antagonist activity,–
CLWAT [SEQ ID NO. 31 (Benzyloxycarbonyl group)],–,antagonist activity,–
"CLWFA [SEQ ID NO. 38 (Benzyloxycarbonyl group), reference compound]",–,agonist activity,(Agonist)
CLWFS [SEQ ID NO. 21 (Benzyloxycarbonyl group)],–,antagonist,–
"CLWFT [SEQ ID NO. 40 (Benzyloxycarbonyl group), reference compound]",–,agonist activity,(Agonist)
"CLWYT [SEQ ID NO. 41 (Benzyloxycarbonyl group), reference compound]",–,–,(Agonist)
Cys-Phe-Trp-Ala-His [cyclic CFWAH],inhibited,–,–

# Same assay, conditions: read-out: IC50
row,Substance,IC50
1,CAWFA [SEQ ID NO. 20 (Hydrogen atom)],0.3 µM
2,CLFWT [SEQ ID NO. 22 (Hydrogen atom)],0.5 µM
3,CLWAS [SEQ ID NO. 35 (Benzyloxycarbonyl group)],1 µM

# Same assay, conditions: read-out: IC50 of the inhibitory activity on the toxin production (pfoA expression amount as indicator)
row,Substance,IC50
1,"AgrDcb-lactam: Peptide of Formula (2), CFWAH lactam obtained by ammonia conversion of AgrDcb-thiolactone (lactam (positions not given here); also: lactam from ammonia conversion of thiolactone, places not given here)",10 µM
2,Cys-Phe-Trp-Ala-His [cyclic CFWAH],10 µM
